Results from patent US11548888B2, “KRas G12C inhibitors” (Mirati Therapeutics, Inc., priority 2019, dated 2023).

These compounds were tested against T1, KRas G12C (Homo sapiens, UniProt P01116, G12C) (assay: Inhibition of KRas G12C-dependent cell growth: Phospho-ERK in NCI-H358 cells). Details: NCI-H358 cells expressing KRas G12C; Phospho-ERK (Thr202/Tyr204) normalized to GAPDH; 3 hours compound; 4 parameter fit.
T1 construct: NCI-H358 cells (ATCC CRL-5807) express KRas G12C
T1 sequence (P01116 1-188 isoform P01116-2 G12C): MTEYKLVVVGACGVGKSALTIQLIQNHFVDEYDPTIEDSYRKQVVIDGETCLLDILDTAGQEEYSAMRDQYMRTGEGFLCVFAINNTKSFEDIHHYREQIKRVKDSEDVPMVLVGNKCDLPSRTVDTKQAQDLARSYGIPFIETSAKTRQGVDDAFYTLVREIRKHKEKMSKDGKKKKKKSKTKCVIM
Format: cell-based
Procedure, shortened: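 NCI-H358 cells (KRas G12C) exposed to compounds for 3 h, 0.5% DMSO final. Fixed cells immunostained for pERK(Thr202/Tyr204) and GAPDH with infrared secondary antibodies. pERK normalized to GAPDH, expressed as percent of DMSO control; IC50 from 4-parameter dose-response fit.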
For `C=C(F)C(=O)N1CCN(c2nc(OCCCN3C[C@@H]4C[C@H]3CO4)nc3c(F)c(-c4cccc5cccc(C)c45)ncc23)C[C@@H]1CC#N` [Example 28, 2-[(2S)-4-[8-fluoro-7-(8-methyl-1-naphthyl)-2-[3-[(1S,4S)-2-oxa-5-azabicyclo[2.2.1]heptan-5-yl]propoxy]pyrido[4,3-d]pyrimidin-4-yl]-1-(2-fluoroprop-2-enoyl)piperazin-2-yl]acetonitrile], the IC50 was 0.26 µM. Work on `C=CC(=O)N1CCN(c2nc(OC[C@@H]3CCCN3C)nc3c(F)c(-c4cccc5ccc(F)c(Cl)c45)ncc23)C[C@H]1C` [Example 152] yielded an IC50 of 0.322 µM. Work on `C#Cc1cccc2cccc(-c3ncc4c(N5C[C@@H]6[C@H]5CCN6C(=O)C=C)ncnc4c3F)c12` [Example 247, 1-((1R,5R)-6-(7-(8-ethynylnaphthalen-1-yl)-8-fluoropyrido[4,3-d]pyrimidin-4-yl)-2,6-diazabicyclo[3.2.0]heptan-2-yl)prop-2-en-1-one] yielded an IC50 of 0.105 µM. Compound `C=CC(=O)N1CCN(c2nc(OC[C@@H]3CCCN3C)nc3c(F)c(-c4cccc5ccc(F)c(Cl)c45)ncc23)C[C@@H]1C` [Example 141] has an IC50 of 0.05 µM. In the case of `C=C(F)C(=O)N1CCN(c2nc(OC[C@H]3[C@@H]4CC[C@@H](C4)N3CC(F)F)nc3c(F)c(-c4cccc5ccc(F)c(Cl)c45)ncc23)C[C@@H]1CC#N` [Example 196], the IC50 is reported as 1.73 µM. Work on `C=C(F)C(=O)N1CCN(c2ncnc3c(F)c(-c4cccc5cccc(Cl)c45)ncc23)C[C@@H]1CC#N` [Example 106] yielded an IC50 of 1.54 µM. `C=C(F)C(=O)N1CCN(c2nc(OCC3COC3)nc3c(F)c(-c4cccc5ccc(F)c(Cl)c45)ncc23)C[C@@H]1CC#N` [Example 151] showed an IC50 of 0.256 µM. `C=C(F)C(=O)N1CCN(c2nc(OC[C@@H]3C[C@@H](OC)CN3C)nc3c(F)c(-c4cccc5ccc(F)c(Cl)c45)ncc23)C[C@@H]1CC#N` [Example 113] gave an IC50 of 0.013 µM. `C=C(F)C(=O)N1CCN(c2nc(OC[C@@H]3CCCN3C)nc3c(F)c(-c4cccc5ccc(F)c(F)c45)ncc23)C[C@@H]1CC#N` [Example 157] gave an IC50 of 0.023 µM. `C=C(F)C(=O)N1CCN(c2nc(OC[C@@H]3[C@@H]4C[C@@H]4CN3C)nc3c(F)c(-c4cccc5ccc(F)c(Cl)c45)ncc23)C[C@@H]1CC#N` [Example 192] showed an IC50 of 0.038 µM. `C=CC(=O)N1CCN(c2nc(OC[C@@H]3CCCN3C)nc3c(F)c(-c4nc(N)ccc4Cl)ncc23)CC1` [Example 103] was tested, and the IC50 was 10 µM. For `Cc1cccc2cccc(-c3ncc4c(N5CCN(C(=O)/C=C/CF)[C@@H](CC#N)C5)nc(OC[C@@H]5CC(F)(F)CN5C)nc4c3F)c12` [Example 24, 2-((S)-4-(2-(((S)-4,4-difluoro-1-methylpyrrolidin-2-yl)methoxy)-8-fluoro-7-(8-methylnaphthalen-1-yl)pyrido[4,3-d]pyrimidin-4-yl)-1-((E)-4-fluorobut-2-enoyl)piperazin-2-yl)acetonitrile], the IC50 was 0.109 µM. Work on `C=CC(=O)N1CCN(c2ncnc3c(F)c(-c4cccc5ccc(F)c(Cl)c45)ncc23)[C@H](C)C1` [Example 133] yielded an IC50 of 10 µM. In the case of `C=CC(=O)N1CCN(c2ncnc3c(F)c(-c4cccc5ccc(F)c(Cl)c45)ncc23)CC1` [Example 134], the IC50 is reported as 10 µM. For `C=CC(=O)N1CC[C@@H]2[C@H]1CN2c1nc(N(C)CC)nc2c(F)c(-c3cccc4ccc(F)c(Cl)c34)ncc12` [Example 274], the IC50 was 10 µM. In the case of `C=CC(=O)N1CCN(c2ncnc3cc(-c4cc(O)cc5ccccc45)ncc23)CC1` [Example 1, 1-(4-(7-(3-hydroxynaphthalen-1-yl)pyrido[4,3-d]pyrimidin-4-yl)piperazin-1-yl)prop-2-en-1-one], the IC50 is reported as 1.92 µM. `C=C(F)C(=O)N1CCN(c2nc(OCCNC(=O)C(C)C)nc3c(F)c(-c4cccc5ccc(F)c(Cl)c45)ncc23)C[C@@H]1CC#N` [Example 230] was tested, and the IC50 was 1.85 µM. `C=C(F)C(=O)N1CCN(c2nc(OC[C@@H]3C[C@@H](OC)CN3C)nc3c(F)c(-c4cccc5cccc(Cl)c45)ncc23)C[C@@H]1CC#N` [Example 22, 2-[(2S)-4-[7-(8-chloro-1-naphthyl)-8-fluoro-2-[[(2S,4R)-4-methoxy-1-methyl-pyrrolidin-2-yl]methoxy]pyrido[4,3-d]pyrimidin-4-yl]-1-(2-fluoroprop-2-enoyl)piperazin-2-yl]acetonitrile] showed an IC50 of 0.038 µM. With `C=CC(=O)N1CCN(c2ncnc3c(F)c(-c4cccc5cccc(C)c45)ncc23)C[C@@H]1CC#N` [Example 41, 2-[(2S)-4-[8-fluoro-7-(8-methyl-1-naphthyl)pyrido[4,3-d]pyrimidin-4-yl]-1-prop-2-enoyl-piperazin-2-yl]acetonitrile] the IC50 was 0.216 µM. For `C=CC(=O)N1CCC12CCN(c1ncnc3c(F)c(-c4cccc5ccc(F)c(Cl)c45)ncc13)C2` (stereo not drawn) [Example 235], the IC50 was 10 µM. For `C=CC(=O)N1CC[C@@H]2[C@H]1CN2c1ncnc2c(F)c(-c3cccc(Cl)c3C3CC3)ncc12` [Example 277], the IC50 was 0.553 µM. `C=CC(=O)N1CCN(c2ncnc3c(F)c(-c4cccc5ccc(F)c(Cl)c45)ncc23)C[C@@H]1CC(F)F` [Example 183] was tested, and the IC50 was 10 µM. With `C=CC(=O)N1CC[C@@H]2[C@H]1CN2c1nc(OC[C@@H]2C[C@@H](F)CN2C)nc2c(F)c(-c3cccc4ccc(F)c(Cl)c34)ncc12` [Example 264] the IC50 was 0.02 µM. `C=CC(=O)N1CCN(c2ncnc3c(F)c(-c4ccccc4C(C)C)ncc23)CC1` [Example 222] showed an IC50 of 10 µM. `CN1C[C@H](F)C[C@H]1COc1nc(N2CCN(C(=O)/C=C/CF)[C@@H](CC#N)C2)c2cnc(-c3cncc4cccc(Cl)c34)c(F)c2n1` [Example 53, 2-[(2S)-4-[7-(5-chloro-4-isoquinolyl)-8-fluoro-2-[[(2S,4R)-4-fluoro-1-methyl-pyrrolidin-2-yl]methoxy]pyrido[4,3-d]pyrimidin-4-yl]-1-[(E)-4-fluorobut-2-enoyl]piperazin-2-yl]acetonitrile] gave an IC50 of 0.017 µM. With `C=C(F)C(=O)N1CCN(c2nc(OC[C@@H]3CCCN3C)nc3c(F)c(-c4cc(O)cc5ccccc45)ncc23)C[C@@H]1CC#N` [Example 95] the IC50 was 0.014 µM. `C=C(F)C(=O)N1CCN(c2nc(OC[C@@H]3CCCN3C)nc3c(O)c(-c4cccc5cccc(C)c45)ncc23)C[C@@H]1CC#N` [Example 211, 2-((S)-1-(2-fluoroacryloyl)-4-(8-hydroxy-7-(8-methylnaphthalen-1-yl)-2-(((S)-1-methylpyrrolidin-2-yl)methoxy)pyrido[4,3-d]pyrimidin-4-yl)piperazin-2-yl)acetonitrile] was tested, and the IC50 was 0.002 µM. For `C=C(F)C(=O)N1CCN(c2nc(OCC3CCN3C)nc3c(F)c(-c4cccc5cccc(Cl)c45)ncc23)C[C@@H]1CC#N` (stereo partly drawn) [Example 71], the IC50 was 0.013 µM. With `C=C(F)C(=O)N1CCN(c2nc(OC[C@H]3CN(C)CCO3)nc3c(F)c(-c4cccc5ccc(F)c(Cl)c45)ncc23)C[C@@H]1CC#N` [Example 158] the IC50 was 0.068 µM. In the case of `C=CC(=O)N1CC[C@@H]2[C@H]1CN2c1nc(C)nc2c(F)c(-c3cccc4ccc(F)c(Cl)c34)ncc12` [Example 238], the IC50 is reported as 0.379 µM. `C=CC(=O)N1CCN(c2ncnc3c(F)c(-c4cccc5ccc(F)c(Cl)c45)ncc23)C(CC#N)C1` (stereo not drawn) [Example 150] gave an IC50 of 10 µM. `C=C(F)C(=O)N1CCN(c2nc(OC[C@@]34CCCN3C[C@H](F)C4)nc3c(F)c(-c4cccc5ccc(F)c(Cl)c45)ncc23)C[C@@H]1CC#N` [Example 229] showed an IC50 of 0.001 µM. `C=C(F)C(=O)N1CCN(c2nc(OCC3CCN3C(C)C)nc3c(F)c(-c4cccc5ccc(F)c(Cl)c45)ncc23)C[C@@H]1CC#N` (stereo partly drawn) [Example 130] showed an IC50 of 0.026 µM.
